# Source: patent publication US12171230B2, “Herbicidal compositions” (Bayer Aktiengesellschaft, priority 2018, dated 2024)
# Several values for one entry are separate records, joined by “and”; a condition that tells them apart may be missing. Equal values may be shown once.
# Legend:
# Assay type in all cases: in vivo
# Polygonum convolvulus = assay: Post-emergence herbicidal action against Polygonum convolvulus
# From the text: The following abbreviations are used in the description and the tables that follow: • g of a.i./ha=grams of active substance (active ingredient) (=100% active compound) per hectare; • The sum total of the effects of the individual applications is reported under E^A; • expected values according to Colby are each reported under E^C.
# The rating period is reported in days after application (DAT).
# Bromus sterilis [1] = assay: Post-emergence herbicidal action against Bromus sterilis; settings: 1 g of a.i./ha
# Lolium rigidum = assay: Post-emergence herbicidal action against Lolium rigidum
# Phalaris minor [2] = assay: Post-emergence herbicidal action against Phalaris minor
# Phalaris minor [3] = assay: as above; remark: listed apart in the source
# Malva pusilia = assay: Post-emergence herbicidal action against Malva pusilia; settings: 42 DAT; 100 g a.i./ha
# [4] = system: Lolium rigidum (resistant biotype); assay: Post-emergence herbicidal action against Lolium rigidum (resistant biotype)
# Bromus sterilis [5] = assay: Post-emergence herbicidal action against Bromus sterilis
# Abutilon theophrasti = assay: Post-emergence herbicidal action against Abutilon theophrasti; settings: 100 g of a.i./ha
# Ipomoea ssp. = assay: Post-emergence herbicidal action against Ipomoea ssp.; settings: 45 DAT
# Viola tricolor = assay: Post-emergence herbicidal action against Viola tricolor
# Lysimachia nummularia = assay: Post-emergence herbicidal action against Lysimachia nummularia; settings: 45 DAT; 100 g a.i./ha
# [6] = system: Lolium rigidum (resistant biotype); assay: Post-emergence herbicidal action against Lolium rigidum (resistant biotype); remark: listed apart in the source
# Ephilobium hirsutum = assay: Post-emergence herbicidal action against Ephilobium hirsutum; settings: 100 g of a.i./ha
# Description: (§1) When the observed efficacies exceed the formal sum total of the values of the tests with individual applications, they also exceed the expected value according to Colby, which is calculated using the formula below and is likewise regarded as an indication of synergism (cf. S. R. Colby; in Weeds 15 (1967) p. 20 to 22): E^C=A+B−([…])
# (§2) Here: • A=efficacy of the active compound (A) in % at an application rate of a g a.i./ha; • B=efficacy of the active compound (B) in % at an application rate of b g a.i./ha; • E^C=expected value of the effect of the combination (A)+(B) in % at the combined application rate a+b g a.i./ha.
# Seeds or rhizome pieces of mono- and dicotyledonous weeds are placed in sandy loam in pots, covered with soil and grown in a greenhouse under good growth conditions (temperature, air humidity, water supply). Three weeks after sowing, the test plants were treated at the three-leaf stage with the compositions according to the invention. The compositions according to the invention formulated as spray powders or as emulsion concentrates were sprayed onto the green plant parts in various dosages with an application rate of 300 to 800 l/ha of water (equivalent). After the test plants have been left to stand in the greenhouse under optimal growth conditions for about 3 to 4 weeks, the action of the preparations is scored visually in comparison to untreated controls. […]
# Brachiaria platyphylla = assay: Post-emergence herbicidal action against Brachiaria platyphylla
# Procedure, shortened: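 Post-emergence foliar application: sandy-loam pots, greenhouse, treatment at three-leaf stage, 300–800 l/ha spray volume. Readout is visual % effect at 3–4 weeks, compared with the Colby expected value for mixtures.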
# Alopecurus myosuroides = assay: Post-emergence herbicidal action against Alopecurus myosuroides
# Ipomoea hederacea = assay: Post-emergence herbicidal action against Ipomoea hederacea; settings: 100 g of a.i./ha
# Description: as §1, §2
# (§3) Seeds or rhizome pieces of mono- and dicotyledonous weeds are placed in sandy loam in pots, covered with soil and grown in a greenhouse under good growth conditions (temperature, air humidity, water supply). Three weeks after sowing, the test plants were treated at the three-leaf stage with the compositions according to the invention. The compositions according to the invention formulated as spray powders or as emulsion concentrates were sprayed onto the green plant parts in various dosages with an application rate of 300 to 800 l/ha of water (equivalent). After the test plants have been left to stand in the greenhouse under optimal growth conditions for about 3 to 4 weeks, the action of the preparations is scored visually in comparison to untreated controls. The compositions according to the invention also have good post-emergence herbicidal activity against a broad spectrum of economically important gramineous and broadleaf weeds.
# Ranunculus repens = assay: Post-emergence herbicidal action against Ranunculus repens; settings: 100 g of a.i./ha
# Description: as §1, §2
# as §3, with “After the test plants have been left to stand in the greenhouse under optimal growth conditions for about 3 to 4 weeks, the action of the preparations is scored visually in comparison to untreated controls.” left out
compound,measurement,setting,value
O=C(Nc1ccc(F)cc1F)c1cccnc1Oc1cccc(C(F)(F)F)c1 [(B2.18) Diflufenican],Herbicidal action 21 DAT against Polygonum convolvulus,"Polygonum convolvulus; g of a.i./ha: 90, 30, 45, 45 + 90, 45 + 30, 30 g of a.i./ha",10%
same,Herbicidal action 21 DAT against Polygonum convolvulus,"Polygonum convolvulus; g of a.i./ha: 90, 30, 45, 45 + 90, 45 + 30, 90 g of a.i./ha",20%
"C=C[C@]1(C(=O)N[C@H]2CO[C@@H](C(=O)OC)C2)CC(c2cc(F)cc(F)c2)=NO1 (relative stereo) [Compound A3, methyl rel-(2R,4R)-4-[[(5S)-3-(3,5-difluorophenyl)-5-vinyl-4H-isoxazole-5-carbonyl]amino]tetrahydrofuran-2-carboxylate]",Herbicidal action in [%] 14 DAT against Bromus sterilis,Bromus sterilis [1],15% and 30%
same,Herbicidal action in [%] 28 DAT against Bromus sterilis,Bromus sterilis [1],15%
same,Herbicidal action in [%] 14 DAT against Lolium rigidum,Lolium rigidum; 1 g of a.i./ha,35% and 40%
same,Herbicidal action in [%] 28 DAT against Lolium rigidum,Lolium rigidum; 1 g of a.i./ha,15% and 10%
same,Herbicidal action in [%] 14 DAT against Lolium rigidum,Lolium rigidum; 4 g of a.i./ha,85%
same,Herbicidal action in [%] 28 DAT against Lolium rigidum,Lolium rigidum; 4 g of a.i./ha,50% and 70%
same,Herbicidal action,"Phalaris minor [2]; 14 DAT, 1 g a.i./ha",20%
same,Herbicidal action,"Phalaris minor [2]; 14 DAT, 4 g a.i./ha",85%
same,Herbicidal action,"Phalaris minor [2]; 14 DAT, 16 g a.i./ha",85%
same,Herbicidal action,"Phalaris minor [2]; 28 DAT, 1 g a.i./ha",10%
same,Herbicidal action,"Phalaris minor [2]; 28 DAT, 4 g a.i./ha",85%
same,Herbicidal action,"Phalaris minor [2]; 28 DAT, 16 g a.i./ha",85%
same,Herbicidal action in [%] 14 DAT against Phalaris minor,Phalaris minor [3]; 1 g of a.i./ha,10% and 20%
same,Herbicidal action in [%] 28 DAT against Phalaris minor,Phalaris minor [3]; 1 g of a.i./ha,0% and 10%
same,Herbicidal action in [%] 14 DAT against Phalaris minor,Phalaris minor [3]; 4 g of a.i./ha,90% and 85%
same,Herbicidal action in [%] 28 DAT against Phalaris minor,Phalaris minor [3]; 4 g of a.i./ha,70%
same,Herbicidal action in [%] 14 DAT against Phalaris minor,Phalaris minor [3]; 16 g of a.i./ha,85%
same,Herbicidal action,Malva pusilia,50%
same,Herbicidal action in [%] 14 DAT against Lolium rigidum (resistant biotype),[4]; 1 g of a.i./ha,15% and 30%
same,Herbicidal action in [%] 28 DAT against Lolium rigidum (resistant biotype),[4]; 1 g of a.i./ha,0%
same,Herbicidal action in [%] 14 DAT against Lolium rigidum (resistant biotype),[4]; 4 g of a.i./ha,40% and 60%
same,Herbicidal action against Bromus sterilis,"Bromus sterilis [5]; 14 DAT, 1 g of a.i./ha",15%
same,Herbicidal action against Bromus sterilis,"Bromus sterilis [5]; 14 DAT, 4 g of a.i./ha",85%
same,Herbicidal action against Bromus sterilis,"Bromus sterilis [5]; 28 DAT, 1 g of a.i./ha",15%
same,Herbicidal action 37 DAT [%] against Abutilon theophrasti,Abutilon theophrasti,75%
same,Herbicidal action,Ipomoea ssp.; 50 g a.i./ha,40%
same,Herbicidal action,Ipomoea ssp.; 100 g a.i./ha,50%
same,Herbicidal action against Viola tricolor,"Viola tricolor; 14 DAT, 1 g of a.i./ha",50%
same,Herbicidal action against Viola tricolor,"Viola tricolor; 14 DAT, 16 g of a.i./ha",85%
same,Herbicidal action against Viola tricolor,"Viola tricolor; 28 DAT, 1 g of a.i./ha",15%
same,Herbicidal action against Viola tricolor,"Viola tricolor; 28 DAT, 16 g of a.i./ha",20%
same,Herbicidal action,Lysimachia nummularia,18%
same,Herbicidal action against Lolium rigidum (resistant biotype),"[6]; 14 DAT, 1 g of a.i./ha",15%
same,Herbicidal action against Lolium rigidum (resistant biotype),"[6]; 14 DAT, 4 g of a.i./ha",40%
same,Herbicidal action against Lolium rigidum (resistant biotype),"[6]; 28 DAT, 1 g of a.i./ha",0%
same,Herbicidal action 43 DAT [%] against Ephilobium hirsutum,Ephilobium hirsutum,77%
same,Herbicidal action 21 DAT [%] against Brachiaria platyphylla,Brachiaria platyphylla; 1.7 g of a.i./ha,20%
same,Herbicidal action 21 DAT against Brachiaria platyphylla,Brachiaria platyphylla; 1.7 g of a.i./ha,20%
same,Herbicidal action 21 DAT [%] against Brachiaria platyphylla,"Brachiaria platyphylla; 1.7 g of a.i./ha, post-emergence, block with (B1.14) Tembotrione",20%
same,Herbicidal action 21 DAT [%] against Brachiaria platyphylla,"Brachiaria platyphylla; 1.7 g of a.i./ha, post-emergence, block with (B9.10) Saflufenacil",20%
same,Herbicidal action 21 DAT [%] against Brachiaria platyphylla,Brachiaria platyphylla; 5 g of a.i./ha,80%
same,Herbicidal action,"Alopecurus myosuroides; 14 DAT, 1 g a.i./ha",30%
same,Herbicidal action,"Alopecurus myosuroides; 14 DAT, 4 g a.i./ha",75%
same,Herbicidal action,"Alopecurus myosuroides; 28 DAT, 1 g a.i./ha",10%
same,Herbicidal action,"Alopecurus myosuroides; 28 DAT, 4 g a.i./ha",60%
same,Herbicidal action 37 DAT against Ipomoea hederacea,Ipomoea hederacea,8%
same,Herbicidal action 37 DAT [%] against Ipomoea hederacea,Ipomoea hederacea; post-emergence,8%
same,Herbicidal action 43 DAT [%] against Ranunculus repens,Ranunculus repens,82%
